Measured values published in patent US20020115867A1, “Imidazolyl/benzimidazolyl-terminated alkylamino ethynyl alanine amino diol compounds for treatment of hypertension” (priority 1992, published 2002).

Molecular target: T1, human renin (Homo sapiens, UniProt P00797)
T1 construct: purchased National Institute for Biological Standards, London
T1 sequence (P00797 67-406): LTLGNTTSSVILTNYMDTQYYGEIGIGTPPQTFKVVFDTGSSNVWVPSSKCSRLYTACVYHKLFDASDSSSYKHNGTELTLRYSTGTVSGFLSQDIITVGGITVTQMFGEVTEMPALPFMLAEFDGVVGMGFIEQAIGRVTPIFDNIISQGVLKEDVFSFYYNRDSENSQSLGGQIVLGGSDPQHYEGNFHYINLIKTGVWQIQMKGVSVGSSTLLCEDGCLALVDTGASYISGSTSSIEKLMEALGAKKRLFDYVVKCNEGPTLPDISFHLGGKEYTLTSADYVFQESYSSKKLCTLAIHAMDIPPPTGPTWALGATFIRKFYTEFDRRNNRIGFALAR
Assay: Human renin inhibition in vitro
Assay type: biochemical
Settings: human plasma angiotensinogen, pH 7.4, 37° C., two hours; angiotensin I by radioimmunoassay
Description: Compounds of Formula I were evaluated as inhibitors of human renin in an in vitro assay, as follows: This human renin inhibition test has been previously described in detail [Papaioannou et al., Clinical and Experimental Hypertension, A7(9), 1243-1257 (1985)]. Human renin was obtained from the National Institute for Biological Standards, London. An incubation mixture was prepared containing the following components: in a total volume of 0.25 mL: 100 mM Tris-acetate buffer at pH 7.4, 25×10^−6 Goldblatt units of renin, 0.05 mL of plasma from human volunteers taking oral contraceptives, 6.0 mM Na-EDTA, 2.4 mM phenylmethyl sulfonyl fluoride, 1.5 mM 8-hydroxyquinoline, 0.4 mg/mL bovine serum albumin (BSA), and 0.024 mg/mL neomycin sulfate. This mixture was incubated for two hours at 37° C. in the presence or absence of renin inhibitors. The produced angiotensin I was determined by radioimmunoassay (New England Nuclear kit). Test compounds to be assayed were dissolved in DMSO and diluted with 100 mM Tris-acetate buffer at pH 7.4 containing 0.5% BSA to the appropriate concentration. The final concentration of organic solvent in the reaction mixture was less than 1%. Control incubations at 37° C. were used to correct for effects of organic solvent on renin activity.

IC50: 0.18 nM
SMILES: C#CC[C@H](NC(=O)[C@@H](CC(=O)N(C)CCn1ccnc1)Cc1ccccc1)C(=O)N[C@@H](CC1CCCCC1)[C@@H](O)[C@@H](O)CC(C)C (relative stereo) [Example 1, N^1-[1R*-[[[1S,1R*-(cyclohexylmethyl)-2S*,3R*-dihydroxy-5-methylhexyl]amino]carbonyl]-3-butynyl]-N^4-[2-(1H-imidazol-1-yl)ethyl]-N^4-methyl-2S*-(phenylmethyl)butanediamide]
